This is an account of results in PMC7324897 (Dose-Response, 2020).

The structures appear in SMILES notation. Entries after “also recorded” stand apart in the source; their conditions may differ.

The target in one assay is BChE (from human serum) (Homo sapiens, UniProt P06276). Nature of the assay: In vitro cholinesterase inhibition assay. It counts as biochemical.
The target of another assay is BChE (Homo sapiens, UniProt P06276). Nature of the assay: Kinetic study of BChE inhibition. It counts as biochemical.
Chain of BChE (P06276 29-602): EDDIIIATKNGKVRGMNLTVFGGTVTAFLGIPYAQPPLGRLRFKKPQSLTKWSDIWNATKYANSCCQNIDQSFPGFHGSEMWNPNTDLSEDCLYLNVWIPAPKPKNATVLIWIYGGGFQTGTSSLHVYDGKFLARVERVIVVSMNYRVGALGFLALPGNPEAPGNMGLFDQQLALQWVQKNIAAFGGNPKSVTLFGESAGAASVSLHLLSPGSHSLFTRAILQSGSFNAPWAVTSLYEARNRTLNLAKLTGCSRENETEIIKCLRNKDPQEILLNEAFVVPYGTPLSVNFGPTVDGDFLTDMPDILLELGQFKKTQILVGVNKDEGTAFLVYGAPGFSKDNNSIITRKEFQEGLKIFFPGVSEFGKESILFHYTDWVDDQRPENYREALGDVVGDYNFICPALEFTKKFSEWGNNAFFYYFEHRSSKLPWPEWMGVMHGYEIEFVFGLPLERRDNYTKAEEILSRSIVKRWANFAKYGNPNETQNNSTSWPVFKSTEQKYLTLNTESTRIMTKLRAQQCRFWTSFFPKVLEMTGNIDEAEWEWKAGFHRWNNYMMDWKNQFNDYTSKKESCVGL

Chain of BChE (from human serum) (P06276 29-602): as above

As for `O=C1CN(C(=O)CCn2ccnc2)CC(O)CN1CCc1ccccc1` (centres unmarked) [Compound 5, 4-(3-(1H-imidazol-1-yl)propanoyl)-6-hydroxy-1-phenethyl-1,4-diazepan-2-one], at BChE (from human serum), the half-inhibitory concentration (IC50) (usually the concentration that inhibits the measured activity by half) is 1.4 µM. The inhibition at 10 µM on BChE (from human serum) (read-out: BChE IR (%), inhibition ratio) is 66%. Further, on BChE, the Ki (usually the dissociation constant of the complex between target and ligand, obtained from inhibition or displacement) came to 0.54 ± 0.07 µM; the “Type of BChE inhibition” value is recorded as “mixed-type inhibitor; also recorded: mixed-type inhibition”. Further, the “Inhibition constant Ki, uncompetitive part (Kiu)” value at BChE (substrate BTC 90-904 μM) turned out to be 2.9 ± 1.0 µM.
